Data from US10584154B2, “Vesicles comprising lectins expressed on the surface and methods of use thereof to deliver an agent to autophagic and apoptotic cells” (TZU CHI UNIVERSITY, priority 2017, dated 2020).

Experiments:
[1] = system: autophagy cells (mouse B16-F10 cells suspended for 4 hours); assay: Blocking of liposomes targeting to autophagy cells (flow cytometry); format: cell-based; settings: M6PR+P-selectin, M6PR+PSGL-1 groups
Protocol: (§1) The mouse B16-F10 cells were suspended for 4 hours to induce autophagy and apoptosis. The autophagy and apoptosis cell were labeled with green fluorescent dyes (GFDs), using Cyto-ID autophagy detection kit (Enzo Life Sciences) (see FIG. 1 and FIG. 3) and CaspGLOW™ Red Active Caspase-3 Staining Kit (BioVision) (see FIG. 2 and FIG. 4) kits, respectively. The autophagy and apoptosis cell containing populations were engaged with various protein conjugated liposomes, which were labeled with fluorescent dye calcein-red (CR). The percentage of B16-F10-liposome engaged populations (GFD and CR double positive populations) were determined using flow cytometry. The levels of liposomes and fluorescent beads engaged with none conjugated cells (the “unconjugated” groups) were normalized to 100% (see FIG. 1 and FIG. 2).
(§2) The mouse B16-F10 cells were suspended for 4 hours and then treated with blocking antibody or soluble M6PR recombinant protein plus additional M6PR+P-selectin-conjugated liposomes. The autophagy and apoptosis cell were labeled with green fluorescent dyes (GFDs), using Cyto-ID autophagy detection kit (Enzo Life Sciences) and CaspGLOW™ Red Active Caspase-3 Staining Kit (BioVision) kits, respectively. […] The percentage of B16-F10-liposome engaged populations (GFD and CR double positive populations) were determined using flow cytometry. […]

[2] = system: apoptotic cells (mouse B16-F10 cells suspended for 4 hours); assay: Blocking of liposomes targeting to apoptotic cells (flow cytometry); format: cell-based; settings: M6PR+P-selectin, M6PR+PSGL-1 groups
Protocol: as §1, §2

sialyl-lewis x oligosaccharide
antidote: blocking of P-selectin, E-selectin and PSGL-1-conjugated liposomes targeting to autophagy cells [1]: able to serve as the antidotes
antidote: blocking of P-selectin, E-selectin and PSGL-1-conjugated liposomes targeting to apoptotic cells [2]: able to serve as the antidotes
